Results from patent publication US11197840B2, “Methods of treating or alleviating mental disorders and associated symptoms” (The Florey Institute of Neuroscience and Mental Health, priority 2015, dated 2021).

Experiments:
[1] = test system: male ArKO (aromatase knockout) mice; test: Water mist spray triggered grooming in male ArKO mice treated with 10-HDA; format: in vivo, mouse
Method: Specifically, male 3 month-old ArKO mice (n=5) were injected daily with 10-HDA (500 μg/kg) for 1 week. Similarly to Example 1 (see above), water mist spray triggered grooming was assessed before and after administration of 10-HDA treatment. During grooming assessment, each mouse was subjected to two squirts of sterile water mist spray and its grooming activity was recorded for 10 min immediately after the mist spray. Grooming duration was analyzed statistically by paired t test. […] Further grooming assessment was performed 5 days after the last administration of 10-HDA.

[2] = test system: dynamin 3; test: Next Generation Sequencing (RNAseq) of primary cortical neurons: dynamin 3 transcript; format: cell-based, mouse; conditions: 1 mM 10-HDA vs DMSO, primary cortical neurons of C57Black 6 mice, harvested Day 7
Method: (§1) Foetal cortices of C57Black 6 mice (gestational days 15) were micro-dissected and subjected to trypsin digestion and mechanical trituration and centrifugation. The pelleted cells were resuspended in Neurobasal™ medium (NBM) containing 2.5% B-27 supplement, 1% penicillin, 1% streptomycin, 0.25% GlutaMAX-1 supplement and 10% dialysed foetal calf serum. Cells were seeded on poly-d-lysine (100 μg/ml) coated 12-well plates to a density of […]. Cultures were maintained at 37° C. in a humidified 5% CO2 and 95% air incubator and were subsequently cultured after day 1 in serum-free medium. After 24 hours, primary cortical neurons were treated with DMSO or 1 mM 10-HDA, and harvested for total RNA preparation on Day 7 for subsequent Next Generation Sequencing (RNAseq). […]
(§2) Total RNA was extracted from each sample using the PARIS kit (Ambion). The quality of RNA was assessed by LabChip® (Perkin Elmer). […] The libraries were sequenced with 50 bp single end reads using Illumina Hiseq and subjected to bioinformatic analyses. Sequencing data were assessed (FastQC) and aligned to mouse genome using Subjunc aligner within the Subread package. Sequencing data was summarised into Reads per transcript using Feature counts and the Gencode gene models for the mouse genome build. […]

[3] = test system: 5-hydroxytryptamine (serotonin) receptor 2C; test: Next Generation Sequencing (RNAseq) of primary cortical neurons: 5-hydroxytryptamine receptor 2C transcript; format: cell-based, mouse; conditions: 1 mM 10-HDA vs DMSO, primary cortical neurons of C57Black 6 mice, harvested Day 7
Method: as §1, §2

[4] = test system: male ArKO mice; test: Behavioural disturbances of male ArKO mice (wheel running, compulsive grooming); format: in vivo, mouse; conditions: administration to male ArKO mice; general statement
Method: Specifically, the grooming activity of each animal was analysed for 20 min after administration of water mist spray (a trigger for grooming). […] Compulsive grooming observed in ArKO represents an OCD-like repetitive behavioural disturbance in OCD-patients.

Structure (SMILES): O=C(O)C=CCCCCCCCO [10-HDA, 10-hydroxy-2-decenoic acid]
- grooming duration after the withdrawal period ([1]; 5 days after the last administration of 10-HDA, male ArKO mice): return to pre-treatment levels
- duration of grooming after administration of 10-HDA ([1]; male 3 month-old ArKO mice, 500 μg/kg injected daily for 1 week, 10 min after water mist spray, before vs after treatment, paired t test p=0.0363): significant reduction
- transcript expression level of dynamin 3 [2]: significantly upregulated
- transcript expression level of 5-hydroxytryptamine (serotonin) receptor 2C [3]: significantly upregulated
- behavioural disturbances, including wheel running and/or compulsive grooming [4]: alleviated one or more of the behavioural disturbances
